This is an account of results in patent US20260285866A1, “MODULATORS OF TRPML, THEIR COMPOSITIONS AND METHODS OF USE” (Caraway Therapeutics, Inc., priority 2024, published 2026).

Assay [1] has as its target T1, Human TRPML3 (Homo sapiens, UniProt Q8TDD5).
T1 construct: expressed in transfected cells
T1 sequence (Q8TDD5 1-553): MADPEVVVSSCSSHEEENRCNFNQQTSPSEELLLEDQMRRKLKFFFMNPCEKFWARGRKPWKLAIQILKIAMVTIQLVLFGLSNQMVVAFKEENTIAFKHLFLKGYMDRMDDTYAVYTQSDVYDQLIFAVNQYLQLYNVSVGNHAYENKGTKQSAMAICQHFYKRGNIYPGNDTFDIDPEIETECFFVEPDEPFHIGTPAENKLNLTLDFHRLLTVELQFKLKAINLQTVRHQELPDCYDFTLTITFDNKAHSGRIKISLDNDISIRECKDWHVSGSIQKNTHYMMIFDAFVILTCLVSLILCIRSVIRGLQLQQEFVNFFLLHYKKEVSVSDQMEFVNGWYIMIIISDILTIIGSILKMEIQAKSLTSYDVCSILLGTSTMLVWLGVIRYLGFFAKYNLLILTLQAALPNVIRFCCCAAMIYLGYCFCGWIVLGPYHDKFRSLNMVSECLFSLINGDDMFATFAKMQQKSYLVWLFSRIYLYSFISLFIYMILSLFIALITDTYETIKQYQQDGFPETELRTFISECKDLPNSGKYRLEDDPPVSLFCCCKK
As to the kind of experiment: Fluorescent TRPML3 assay (as for TRPML1). It counts as cell-based. The settings on record: fluorescent calcium assay as for TRPML1, TRPML3 subtype. The procedure:
(§1) HEK-293 Trex cells were stably transfected with a construct consisting of the human coding sequence for TRPML1 cloned into the tet-inducible plasmid pCDNA5 T/O. Mutations were introduced into the TRPML1 sequence to facilitate expression on the cell surface (Silvia Vergarajauregui, Rosa Puertollano Traffic. 2006 March; 7(3): 337-353). Briefly, the cells are cultured in 150 mm round tissue culture dishes containing 20 mL of media. The day before the assay the cells are rinsed with DPBS-Ca-Mg and then treated briefly with Trypsin-EDTA. The Trypsin-EDTA is diluted with growth media, and cells are counted. 38×10^6 cells are re-plated into 150 mm round tissue culture dishes in media containing 0.5 μg/mL doxycycline to induce expression of hTRPML1.
(§2) The day of the experiment cells are lifted from the plates as above and collected by centrifugation. The cells are then suspended in dye loading buffer consisting of Ringer's solution supplemented with 0.1% Pluronic Acid and 1 micromolar Fluo4-AM dye. Cells are loaded for ~60 minutes in the dark with occasional mixing. The cells are collected by centrifugation, the loading media aspirated, and the cells resuspended in 25 mL Ringer's solution and incubated ~60 minutes in the dark. The cells are again collected by centrifugation, rinsed in Ringer's Solution and resuspended to 0.2×10^6 cells/mL in modified Ringer's solution containing 10 mM calcium.
(§3) Compounds are dissolved to a concentration of 10 millimolar with DMSO. Compound plates are created by dispensing compounds into 384 well black wall clear bottom plates (Greiner 781091). Positive and negative controls are included on each plate. Typically, different amounts of each compound are tested ranging from 100 nanoMoles (20 micromolar final concentration) decreasing in half-log steps to 31 picoMoles (6 nanomolar final concentration). Each concentration is typically tested in triplicate.
(§4) 50 microliters of dye-loaded cells are dispensed into each well of the compound assay plate created above. The fluorescence in each well is then determined with an excitation wavelength of 480 nm and an emission wavelength of 540 nm using either a Molecular Devices SpectraMax multimode plate reader or a Hamamatsu FDSS/uCell plate imager.
(§5) The resulting fluorescence for each well is exported as an ascii file and loaded into our LIMS for analysis. The percent activity of each compound at each concentration is determined by comparison to the positive and negative control wells included in each plate.
Assays for TRPML2 and TRPML3 were performed as above for TRPML1, by substituting the appropriate TRPML2 or TRPML3 subtype for the TRPML1.
(§6) EC50 values were calculated using a non-linear regression of Prism. In the table, “A” indicates an EC50 of less than 100 nM, “B” indicates an EC50 range from 100 nM to 500 nM: “C” indicates an EC50 range from 500 nM to 2 μM; and “D” indicates an EC50 greater than 2 μM.

For assay [2], the target named is Human TRPML1 (Homo sapiens, UniProt Q9GZU1, L15A/L16A/L577A/L578A). As to the kind of experiment: Fluorescent TRPML1 assay (Fluo4-AM, HEK-293 Trex cells expressing hTRPML1). Format: cell-based. The settings on record: fluorescent calcium assay, doxycycline-induced hTRPML1. The procedure:
Example 27. Fluorescent TRPML Assays
as §1, §2, §3, §4, §5, §6

Human TRPML1, sequence (Q9GZU1 whole entry L15A/L16A/L577A/L578A): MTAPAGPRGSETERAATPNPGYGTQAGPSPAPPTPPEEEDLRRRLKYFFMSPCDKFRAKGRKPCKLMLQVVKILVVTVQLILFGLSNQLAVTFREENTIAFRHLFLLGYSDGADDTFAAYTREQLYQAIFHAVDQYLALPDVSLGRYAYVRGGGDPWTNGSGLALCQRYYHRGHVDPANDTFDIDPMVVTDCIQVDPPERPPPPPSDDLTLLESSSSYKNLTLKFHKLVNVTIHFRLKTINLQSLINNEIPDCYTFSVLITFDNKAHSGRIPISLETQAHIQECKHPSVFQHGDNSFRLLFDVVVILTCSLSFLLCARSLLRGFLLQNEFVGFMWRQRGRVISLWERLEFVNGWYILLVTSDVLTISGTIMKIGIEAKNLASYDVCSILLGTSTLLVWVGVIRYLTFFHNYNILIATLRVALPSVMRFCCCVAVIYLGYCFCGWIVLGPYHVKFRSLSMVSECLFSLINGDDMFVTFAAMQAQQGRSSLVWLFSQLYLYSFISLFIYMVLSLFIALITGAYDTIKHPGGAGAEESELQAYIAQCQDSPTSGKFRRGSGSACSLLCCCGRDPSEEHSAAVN

On to `C[C@@H]1CN(c2nccc3c2c(-c2ccncc2)cn3-c2cccc(Cl)c2)[C@@H](C)CN1C(=O)C(C)(C)O` [Compound 142, 1-((2R,5S)-4-(1-(3-chlorophenyl)-3-(pyridin-4-yl)-1H-pyrrolo[3,2-c]pyridin-4-yl)-2,5-dimethylpiperazin-1-yl)-2-hydroxy-2-methylpropan-1-one], for which the EC50 (as a rule, the concentration that produces a half-maximal response) is greater than 2000 nM in assay [1] and 500 to 2000 nM in assay [2].

`C[C@@H]1CN(c2ncnc3c2c(-c2ccccc2F)cn3-c2cc(C#N)ccn2)[C@@H](C)CN1C(=O)C(C)(O)CO` (stereo partly drawn) [Compound 167, 2-(4-((2S,5R)-4-(2,3-dihydroxy-2-methylpropanoyl)-2,5-dimethylpiperazin-1-yl)-5-(2-fluorophenyl)-7H-pyrrolo[2,3-d]pyrimidin-7-yl)isonicotinonitrile]: the EC50 in assay [1] was in the range of 500 to 2000 nM; in assay [2] it was 100 to 500 nM.

As for `C[C@@H]1CN(c2ncnc3c2c(C2CC2)cn3-c2cc(C#N)ccn2)[C@@H](C)CN1C(=O)CC(C)(C)O` [Compound 160, 2-(5-cyclopropyl-4-((2S,5R)-4-(3-hydroxy-3-methylbutanoyl)-2,5-dimethylpiperazin-1-yl)-7H-pyrrolo[2,3-d]pyrimidin-7-yl)isonicotinonitrile], the EC50 in assay [1] and in assay [2] was 500 to 2000 nM throughout.

For the molecule `CC(C)[C@H]1CN(C(=O)C(C)(C)O)CCN1c1ncnc2c1c(-c1ccccc1)cn2-c1cc(C#N)ccn1` [Compound 112, (S)-2-(4-(4-(2-hydroxy-2-methylpropanoyl)-2-isopropylpiperazin-1-yl)-5-phenyl-7H-pyrrolo[2,3-d]pyrimidin-7-yl)isonicotinonitrile], the EC50 in assay [1] and in assay [2] was 500 to 2000 nM each time.

On to `C[C@@H]1CN(c2ncnc3c2c(-c2cccnc2)cn3-c2cc(C#N)ccn2)[C@@H](C)CN1C(=O)C(C)(C)O` [Compound 115, 2-(4-((2S,5R)-4-(2-hydroxy-2-methylpropanoyl)-2,5-dimethylpiperazin-1-yl)-5-(pyridin-3-yl)-7H-pyrrolo[2,3-d]pyrimidin-7-yl)isonicotinonitrile], for which the EC50 in assay [1] is greater than 2000 nM; in assay [2], 500 to 2000 nM.

With `C[C@@H]1CN(c2ncnc3c2c(-c2ccccc2F)cn3-c2cc(OC(F)(F)F)ccn2)[C@@H](C)CN1C(=O)C(C)(C)O` [Compound 103, 1-((2R,5S)-4-(5-(2-fluorophenyl)-7-(4-(trifluoromethoxy)pyridin-2-yl)-7H-pyrrolo[2,3-d]pyrimidin-4-yl)-2,5-dimethylpiperazin-1-yl)-2-hydroxy-2-methylpropan-1-one], the EC50 in assay [1] lay in the range of 500 to 2000 nM; in assay [2], 100 to 500 nM.

As for `C[C@@H]1CN(c2ncnc3c2c(-n2ccnc2)cn3-c2cc(C#N)ccn2)[C@@H](C)CN1C(=O)C(C)(C)O` [Compound 132, 2-(4-((2S,5R)-4-(2-hydroxy-2-methylpropanoyl)-2,5-dimethylpiperazin-1-yl)-5-(1H-imidazol-1-yl)-7H-pyrrolo[2,3-d]pyrimidin-7-yl)isonicotinonitrile], the EC50 in assay [1] and in assay [2] was greater than 2000 nM in each case.

For `CC(C)(O)C(=O)N1CCN(c2ncnc3c2c(-c2ccccc2)cn3-c2cc(C#N)ccn2)[C@@H](C2CC2)C1` [Compound 113], the EC50 in assay [1] and in assay [2] was 500 to 2000 nM in each case.

`C[C@@H]1CN(c2ncnc3c2c(N2CCC2)cn3-c2cc(C#N)ccn2)[C@@H](C)CN1C(=O)C(C)(C)O` [Compound 107, 2-(5-(azetidin-1-yl)-4-((2S,5R)-4-(2-hydroxy-2-methylpropanoyl)-2,5-dimethylpiperazin-1-yl)-7H-pyrrolo[2,3-d]pyrimidin-7-yl)isonicotinonitrile]: the EC50 is greater than 2000 nM in assay [1] and 100 to 500 nM in assay [2].

Take `C[C@@H]1CN(c2ncnc3c2c(-c2ccns2)cn3-c2cc(C#N)ccn2)[C@@H](C)CN1C(=O)C(C)(C)O` [Compound 153, 2-(4-((2S,5R)-4-(2-hydroxy-2-methylpropanoyl)-2,5-dimethylpiperazin-1-yl)-5-(isothiazol-5-yl)-7H-pyrrolo[2,3-d]pyrimidin-7-yl)isonicotinonitrile]: the EC50 in assay [1] and in assay [2] was 500 to 2000 nM throughout.

As for `C[C@@H]1CN(c2ncnc3c2c(-c2cocn2)cn3-c2cc(C#N)ccn2)[C@@H](C)CN1C(=O)C(C)(C)O` [Compound 126, 2-(4-((2S,5R)-4-(2-hydroxy-2-methylpropanoyl)-2,5-dimethylpiperazin-1-yl)-5-(oxazol-4-yl)-7H-pyrrolo[2,3-d]pyrimidin-7-yl)isonicotinonitrile], the EC50 in assay [1] is greater than 2000 nM; in assay [2], 500 to 2000 nM.

`C[C@H]1CN(C(=O)C(C)(C)O)[C@H](CO)CN1c1ncnc2c1c(-c1ccccc1F)cn2-c1cc(C#N)ccn1` [Compound 168, 2-(5-(2-fluorophenyl)-4-((2S,5S)-4-(2-hydroxy-2-methylpropanoyl)-5-(hydroxymethyl)-2-methylpiperazin-1-yl)-7H-pyrrolo[2,3-d]pyrimidin-7-yl)isonicotinonitrile]: the EC50 was greater than 2000 nM in assay [1] and 500 to 2000 nM in assay [2].

For `C[C@@H]1CN(c2ncnc3c2c(-c2ccccc2)cn3-c2cc(C#N)ccn2)[C@@H](C2CC2)CN1C(=O)C(C)(C)O` [Compound 119, 2-(4-((2S,5R)-2-cyclopropyl-4-(2-hydroxy-2-methylpropanoyl)-5-methylpiperazin-1-yl)-5-phenyl-7H-pyrrolo[2,3-d]pyrimidin-7-yl)isonicotinonitrile], the EC50 in assay [1] lay within 500 to 2000 nM; in assay [2], 100 to 500 nM.

With `C[C@@H]1CN(c2ncnc3c2c(-c2cnco2)cn3-c2cc(C#N)ccn2)[C@@H](C)CN1C(=O)C(C)(C)O` [Compound 127, 2-(4-((2S,5R)-4-(2-hydroxy-2-methylpropanoyl)-2,5-dimethylpiperazin-1-yl)-5-(oxazol-5-yl)-7H-pyrrolo[2,3-d]pyrimidin-7-yl)isonicotinonitrile], the EC50 is greater than 2000 nM in assay [1] and 100 to 500 nM in assay [2].

As to `C[C@@H]1CN(c2ncnc3c2c(-c2ccncc2)cn3-c2cccc(Cl)c2)[C@@H](C)CN1C(=O)C(C)(C)O` [Compound 137, 1-((2R,5S)-4-(7-(3-chlorophenyl)-5-(pyridin-4-yl)-7H-pyrrolo[2,3-d]pyrimidin-4-yl)-2,5-dimethylpiperazin-1-yl)-2-hydroxy-2-methylpropan-1-one], the figures for the EC50 in assay [1] and in assay [2] were greater than 2000 nM and 500 to 2000 nM, respectively.

Regarding `C[C@@H]1CN(c2ncnc3c2c(-c2ccccc2)cn3-c2cc(C#N)ccn2)[C@@H](C)CN1C(=O)C1(O)CN(C)C1` [Compound 130, 2-(4-((2S,5R)-4-(3-hydroxy-1-methylazetidine-3-carbonyl)-2,5-dimethylpiperazin-1-yl)-5-phenyl-7H-pyrrolo[2,3-d]pyrimidin-7-yl)isonicotinonitrile], the EC50 in assay [1] is greater than 2000 nM; in assay [2], 500 to 2000 nM.

On to `C[C@H]1CN(C(=O)C2(O)CCC2)CCN1c1ncnc2c1c(-c1ccccc1F)cn2-c1cc(C#N)ccn1` [Compound 117, (S)-2-(5-(2-fluorophenyl)-4-(4-(1-hydroxycyclobutane-1-carbonyl)-2-methylpiperazin-1-yl)-7H-pyrrolo[2,3-d]pyrimidin-7-yl)isonicotinonitrile], for which the EC50 in assay [1] and in assay [2] was 500 to 2000 nM each time.
